Reference: the supplement of paper PMC13380429

Columns and labels:
[1] = test system: A549-ACE2 infected with SARS-CoV-2; assay: cell count relative to DMSO; higher = less toxic; details: 24 h
HepG2 [2] = assay: cell viability relative to DMSO; higher = less toxic; details: 72 h
U2OS [3] = assay: as above; details: 72 h
Vero E6 [4] = assay: as above; details: 72 h
Calu-3 [5] = assay: as above; details: 72 h
Caco-2 [6] = assay: as above; details: 72 h
[7] = test system: A549-ACE2 infected with SARS-CoV-2; assay: morphology score (similarity to uninfected cells); higher = more like uninfected cells; details: 24 h
HepG2 [8] = assay: drug sensitivity score (DSS) for viability; higher = more toxic; extreme values may be limits of the assay; details: 72 h
U2OS [9] = assay: as above; details: 72 h
Vero E6 [10] = assay: as above; details: 72 h
Calu-3 [11] = assay: as above; details: 72 h
Caco-2 [12] = assay: as above; details: 72 h
A549-ACE2 = assay: drug-induced phospholipidosis relative to tamoxifen; higher = more phospholipidosis
HepG2 [13] = assay: relative viability EC50 (midpoint between 100% and the lowest measured viability); higher = less toxic; details: 72 h
Vero E6 [14] = assay: as above; details: 72 h
Calu-3 [15] = assay: as above; details: 72 h
Caco-2 [16] = assay: as above; details: 72 h
[17] = test system: A549-ACE2 infected with SARS-CoV-2; assay: SARS-CoV-2 infection rate relative to DMSO; higher = more infection; details: 24 h
U2OS [18] = assay: relative viability EC50 (midpoint between 100% and the lowest measured viability); higher = less toxic; details: 72 h

CCN1CCC(n2cc(CNc3cc(Cl)c4ncc(C#N)c(Nc5ccc(F)c(Cl)c5)c4c3)nn2)CC1 [cot-inhibitor-2]
Details | SARS-CoV-2 infection rate, [17] [%] | cell count, [1] [%] | cell viability, Caco-2 [6] [%] | cell viability, Calu-3 [5] [%] | cell viability, HepG2 [2] [%] | cell viability, U2OS [3] [%] | cell viability, Vero E6 [4] [%] | morphology score, [7]
1 nM | – | – | 105 | 110 | 102 | 102 | 95.7 | –
10 nM | – | – | 99.9 | 92 | 109 | 96.4 | 101 | –
100 nM | – | – | 93.3 | 111 | 91.3 | 97.4 | 101 | –
0.3 µM | 93 | 102 | – | – | – | – | – | 0.17
1000 nM | – | – | 94.6 | 96.6 | 100 | 93.2 | 99.8 | –
3 µM | 47 | 112 | – | – | – | – | – | 0.77
10 µM | 26 | 66 | – | – | – | – | – | 0.43
10000 nM | – | – | 47.4 | 87 | 43.9 | 66 | 81.6 | –

Details | drug sensitivity score | relative viability EC50 [µM]
Caco-2 [12] | 3.7 | –
Caco-2 [16] | – | 2.31
Calu-3 [11] | 0.3 | –
Calu-3 [15] | – | > 10
HepG2 [8] | 3 | –
HepG2 [13] | – | 3.19
U2OS [9] | 2.7 | –
Vero E6 [10] | 0.5 | –
Vero E6 [14] | – | > 10

drug-induced phospholipidosis [%], A549-ACE2
Details | 0.3 µM | 0.833333 µM | 3.33333 µM | 6.66667 µM
24 h | -0.44 | -4.12 | -0.13 | 29.3
48 h | -2.64 | -3.78 | 2.2 | –
72 h | 1.59 | -0.868 | 0.286 | –

CCC(CC)COC(=O)[C@H](C)N[P@](=O)(OC[C@H]1O[C@@](C#N)(c2ccc3c(N)ncnn23)[C@H](O)[C@@H]1O)Oc1ccccc1 [Remdesivir]
Details | SARS-CoV-2 infection rate [%] | cell count [%] | cell viability [%] | morphology score
Caco-2 [6], 1 nM | – | – | 103 | –
Caco-2 [6], 10 nM | – | – | 101 | –
Caco-2 [6], 100 nM | – | – | 102 | –
Caco-2 [6], 1000 nM | – | – | 102 | –
Caco-2 [6], 10000 nM | – | – | 69.3 | –
Calu-3 [5], 1 nM | – | – | 90.6 | –
Calu-3 [5], 10 nM | – | – | 103 | –
Calu-3 [5], 100 nM | – | – | 88.7 | –
Calu-3 [5], 1000 nM | – | – | 97 | –
Calu-3 [5], 10000 nM | – | – | 81.1 | –
HepG2 [2], 1 nM | – | – | 101 | –
HepG2 [2], 10 nM | – | – | 95.5 | –
HepG2 [2], 100 nM | – | – | 105 | –
HepG2 [2], 1000 nM | – | – | 70.2 | –
HepG2 [2], 10000 nM | – | – | 33.7 | –
U2OS [3], 1 nM | – | – | 98 | –
U2OS [3], 10 nM | – | – | 100 | –
U2OS [3], 100 nM | – | – | 101 | –
U2OS [3], 1000 nM | – | – | 96.1 | –
U2OS [3], 10000 nM | – | – | 42.6 | –
Vero E6 [4], 1 nM | – | – | 97.2 | –
Vero E6 [4], 10 nM | – | – | 97.6 | –
Vero E6 [4], 100 nM | – | – | 99.7 | –
Vero E6 [4], 1000 nM | – | – | 99.3 | –
Vero E6 [4], 10000 nM | – | – | 109 | –
[1], 0.008 µM | – | 104 | – | –
[1], 0.033 µM | – | 114 | – | –
[1], 0.1 µM | – | 120 | – | –
[1], 0.3 µM | – | 126 | – | –
[1], 1 µM | – | 124 | – | –
[1], 3 µM | – | 116 | – | –
[1], 10 µM | – | 111 | – | –
[1], 30 µM | – | 105 | – | –
[7], 0.008 µM | – | – | – | 0.17
[7], 0.033 µM | – | – | – | 0.61
[7], 0.1 µM | – | – | – | 0.82
[7], 0.3 µM | – | – | – | 0.95
[7], 1 µM | – | – | – | 0.96
[7], 3 µM | – | – | – | 0.97
[7], 10 µM | – | – | – | 0.93
[7], 30 µM | – | – | – | 0.93
[17], 0.008 µM | 95 | – | – | –
[17], 0.033 µM | 83 | – | – | –
[17], 0.1 µM | 18 | – | – | –
[17], 0.3 µM | 11 | – | – | –
[17], 1 µM | 16 | – | – | –
[17], 3 µM | 9 | – | – | –
[17], 10 µM | 2 | – | – | –
[17], 30 µM | 2 | – | – | –

Details | drug sensitivity score | relative viability EC50 [µM]
Caco-2 [12] | 1.2 | –
Calu-3 [11] | 0.4 | –
Calu-3 [15] | – | > 10
HepG2 [8] | 7.5 | –
HepG2 [13] | – | 1.09
U2OS [9] | 3.7 | –
U2OS [18] | – | 2.62
Vero E6 [10] | 0 | –
Vero E6 [14] | – | > 10

drug-induced phospholipidosis [%], A549-ACE2
Details | 0.3 µM | 0.833333 µM | 3.33333 µM | 6.66667 µM | 10 µM | 30 µM
24 h | 1.03 | -4.55 | 5.63 | 18 | 30 | 47.1
48 h | 4.23 | -7.54 | 0.11 | 4.58 | 10.5 | –
72 h | 4.52 | -8.77 | -4.57 | – | – | –

Cc1nc(Nc2ccc(F)cc2)nc(N2CCc3ccccc3C2C)c1C (stereo not drawn) [revaprazan]
Details | SARS-CoV-2 infection rate, [17] [%] | cell count, [1] [%] | cell viability, Caco-2 [6] [%] | cell viability, Calu-3 [5] [%] | cell viability, HepG2 [2] [%] | cell viability, U2OS [3] [%] | cell viability, Vero E6 [4] [%] | morphology score, [7]
1 nM | – | – | 98.3 | 97.5 | 98.2 | 101 | 90.2 | –
10 nM | – | – | 96.7 | 102 | 106 | 100 | 106 | –
100 nM | – | – | 104 | 106 | 96.3 | 102 | 92.7 | –
0.3 µM | 91 | 105 | – | – | – | – | – | 0.16
1000 nM | – | – | 97.6 | 92 | 110 | 97.1 | 98.1 | –
3 µM | 61 | 110 | – | – | – | – | – | 0.59
10 µM | 33 | 115 | – | – | – | – | – | 0.78
10000 nM | – | – | 71.6 | 99.8 | 60.4 | 81.5 | 95.8 | –
30 µM | 19 | 99 | – | – | – | – | – | 0.77

Details | drug sensitivity score | relative viability EC50 [µM]
Caco-2 [12] | 1.6 | –
Calu-3 [11] | 0 | –
Calu-3 [15] | – | > 10
HepG2 [8] | 1.5 | –
U2OS [9] | 0.8 | –
U2OS [18] | – | > 10
Vero E6 [10] | 0 | –
Vero E6 [14] | – | > 10

drug-induced phospholipidosis [%], A549-ACE2
Details | 0.3 µM | 0.833333 µM | 3.33333 µM | 6.66667 µM | 10 µM | 30 µM
24 h | 0.84 | 3.77 | 8.66 | 7.71 | 18.8 | 34.5
48 h | 2.14 | 1.27 | 2.71 | 2.07 | 8.48 | 17.2
72 h | 2.77 | -0.285 | 3.45 | 3.85 | 13.8 | 30.9

CC1(C)S[C@@H]2[C@H](NC(=O)COc3ccccc3)C(=O)N2[C@H]1C(=O)O [penicillin-v-potassium]
cell viability [%]
Details | Caco-2 [6] | Calu-3 [5] | HepG2 [2] | U2OS [3] | Vero E6 [4]
1 nM | 97.5 | 91.3 | 105 | 101 | 104
10 nM | 95.6 | 97.1 | 105 | 96.4 | 101
100 nM | 94.3 | 101 | 103 | 99.8 | 104
1000 nM | 92.7 | 108 | 94.9 | 97 | 103
10000 nM | 90 | 94.9 | 97.4 | 98.7 | 96.9

Details | drug sensitivity score | relative viability EC50 [µM]
Caco-2 [12] | 0 | –
Caco-2 [16] | – | > 10
Calu-3 [11] | 0 | –
Calu-3 [15] | – | > 10
HepG2 [8] | 0 | –
HepG2 [13] | – | > 10
U2OS [9] | 0 | –
U2OS [18] | – | > 10
Vero E6 [10] | 0 | –
Vero E6 [14] | – | > 10

O=C(O)CCNc1cc(N2CCc3ccccc3CC2)nc(-c2cccnc2)n1 [GSK-J2]
cell viability [%]
Details | Caco-2 [6] | Calu-3 [5] | HepG2 [2] | U2OS [3] | Vero E6 [4]
1 nM | 96.6 | 100 | 99.7 | 98.5 | 97.3
10 nM | 100 | 97.1 | 97.3 | 95.4 | 108
100 nM | 98.6 | 91.5 | 96.6 | 94.8 | 98.9
1000 nM | 94.8 | 105 | 98.8 | 98.3 | 98
10000 nM | 87.1 | 97.2 | 103 | 91.2 | 99.1

Details | drug sensitivity score | relative viability EC50 [µM]
Caco-2 [12] | 0.2 | –
Caco-2 [16] | – | > 10
Calu-3 [11] | 0 | –
Calu-3 [15] | – | > 10
HepG2 [8] | 0 | –
HepG2 [13] | – | > 10
U2OS [9] | 0 | –
U2OS [18] | – | > 10
Vero E6 [10] | 0 | –
Vero E6 [14] | – | > 10
